{
  "source": "patent US20220008425A1",
  "about": "“Pharmaceutical Composition for Treating B-Cell Lymphoma” (FUNDAN UNIVERSITY SHANGHAI CANER CENTER, priority 2018, published 2022)",
  "key": {"[1]": {"system": "NU-DUL-1-RCHO cells", "test": "Aldefluor analysis (ALDH1+ cells)", "assay_type": "cell-based, human", "procedure": "(§1) ALDH1 is a selectable marker for a variety of normal and cancer stem cells, including hematopoietic stem cells. Therefore, we assessed the number of cancer stem cells in hematopoietic malignancies by detecting ALDH1 positive cells. As previously described, we used an ALDEFLUOR™ kit (StemCell Technologies, Vancouver, BC, CA) to detect populations with high ALDH1 activity. Briefly, 1×10^6 cells were suspended in 1 mL of assay buffer containing 1 μM of BAAA, a substrate of […]. Suspended cells were then equally divided into two samples, one as a negative control and the other as a test sample. To form the negative control, […] of DEAB, a specific ALDH inhibitor, was added to one equally-divided sample. Cells were then incubated at 37° C. for 30 minutes prior to flow cytometry analysis."}, "[2]": {"system": "LY8-RCHO cells", "test": "Aldefluor analysis (ALDH1+ cells)", "assay_type": "cell-based, human", "procedure": "as §1"}, "[3]": {"system": "AKT phosphorylation, SOX2, CDK6 and CSC-associated molecules in LY8-RCHO cells", "test": "Immunoblot analysis", "assay_type": "cell-based, human"}, "[4]": {"system": "LY8-RCHO cells", "conditions": "48 hours", "procedure": "Further, we constructed LY8 and NU-DUL-1 cells resistant to chemotherapeutic drugs. Briefly, LY8-ORI and NU-DUL-1-ORI cells were treated with doxorubicin (Selleck Chemicals, Houston, Tex.) and vincristine (Selleck Chemicals, Houston, Tex.) at a clinical ratio of 50:1.4 by increasing the concentration. […] These cells were then treated with 2 μg/mL of 4-hydroperoxycyclophosphamide (4-HC) (Santa Cruz Biotechnology, Inc., Santa Cruz, Calif.) every 21 days for 3 cycles. The obtained CHO-resistant cells are referred to as LY8-CHO and NU-DUL-1-CHO, respectively. CHO-resistant cells were treated with doxorubicin, vincristine, and 4-HC every 22 days to maintain drug tolerance to CHO. […] To maintain RCHO resistance, LY8-RCHO cells and NU-DUL-1-RCHO cells were treated with 32 μg/mL of rituximab containing 20% (v/v) of NHS every 22 days, followed by treatment with doxorubicin, vincristine, and 4-HC. After 48 hours of treatment with doxorubicin, vincristine and 4-HC, drug resistance to CHO and RCHO was determined by a series of CCK-8 assays.\nCells were seeded in a 96-well plate at a density of 1×10^4/100 μL/well. Cells were pretreated with IPI-145, abemaciclib, AZD4547, PF-573228, R788, or saracatinib at increasing concentrations with or without CHO for 48 hours prior to performing CytoTox-Glo™ cytotoxicity assay. We performed cytotoxicity assay by using a CytoTox-Glo™ cytotoxicity assay kit (Promega Inc., Madison, Wis.) according to their instructions. Briefly, 50 μL of CytoTox-Glo™ cytotoxicity assay reagent was added to all wells, mixed by orbital shaking, and then incubated for 15 minutes at room temperature. Luminescence of experimental dead cells was detected with a Synergy HT microplate reader (BioTek, Biotek Winooski, Minn.), wherein 50 μL of lysate was added to all wells, mixed and incubated for 15 minutes at room temperature prior to detection of total luminescence. Cytotoxicity was calculated according to the following formula: Cytotoxicity (%)=Experimental dead cell luminescence/Total luminescence×100%."}, "[5]": {"system": "SOX2 in tumor tissues grown from LY8-RCHO-Luc cells", "test": "SOX2 immunohistochemical staining of tumor tissues from the transplantation model", "assay_type": "in vivo, SCID mice", "conditions": "tumors from LY8-RCHO-Luc cells; compared with saline control", "source_text": "(§2) Construction of a transplantation model: we transduced LY8-RCHO cells and NU-DUL-1-RCHO cells with lentiviruses overexpressing the firefly luciferase gene to generate stable cells expressing firefly luciferase, referred to as LY8-RCHO-Luc cells and NU-DUL-1-RCHO-Luc cells, respectively. 8-week-old female SCID mice were purchased from SLAC (Shanghai laboratory animal center). The LY8-RCHO-Luc cells and NU-DUL-1-RCHO-Luc cells were resuspended in PBS prior to intraperitoneal injection of 1.5×10^7 cells per mouse. After intraperitoneal injection of the LY8-RCHO-Luc cells, mice were randomized into 6 groups (7 mice in every group) and given saline, R-CHOP, duvelisib, abemaciclib, R-CHOP+duvelisib, and R-CHOP+abemaciclib, respectively. Mice inoculated with the NU-DUL-1-RCHO-Luc cells were randomly divided into 6 groups (7 mice in every group), and were given saline, R-CHOP, duvelisib, AZD4547, R-CHOP+duvelisib, and R-CHOP+AZD4547, respectively. […] Tumor growth was monitored by bioluminescence at day 50 and day 90 after inoculation. For in vivo luminescence imaging, D-luciferin (Promega, Madison, Wis.) was intraperitoneally injected into mice (150 mg/kg). […] Luminescence images were captured with an exposure time of 30 seconds and the signal intensity of the tumor was measured by using Bruker MI software. The survival time of each mouse was recorded. […]\n(§3) Tumor tissues from patients or animal models were fixed with 4% formalin, embedded in paraffin and sectioned. […] Immunoreactivity was then detected by using a GTVision III immunohistochemical detection kit (GK500705; Gene Tech Inc., Shanghai, China) according to its instructions. Quantitative scoring of immunostaining for SOX2, p-AKT, CDK6, FGFR1 and FGFR2 was performed on three independent sections under the microscope, according to the formula: score=3 (strong positive)×percentage+2 (medium positive)×percentage+1 (weak positive)×percentage+0 (negative)×percentage."}, "[6]": {"system": "SOX2 in tumor tissues grown from NU-DUL-1-RCHO-Luc cells", "test": "SOX2 immunohistochemical staining of tumor tissues from the transplantation model", "assay_type": "in vivo, SCID mice", "conditions": "tumors from NU-DUL-1-RCHO-Luc cells; compared with saline control", "source_text": "as §2, §3"}},
  "note": "“Also recorded” adds a separate entry of the source.",
  "data": [
    {"smiles": "C[C@H](Nc1ncnc2[nH]cnc12)c1cc2cccc(Cl)c2c(=O)n1-c1ccccc1", "note": "[duvelisib]", "values": [
      {"measurement": "proportion of ALDH1+ cells (CSCs)", "setting": "[1]", "value": "significantly reduced ALDH1+ subpopulations in LY8-RCHO and NU-DUL-1-RCHO cells"},
      {"measurement": "proportion of ALDH1+ cells (CSCs)", "setting": "[2]", "value": "significantly reduced ALDH1+ subpopulations in LY8-RCHO and NU-DUL-1-RCHO cells"},
      {"measurement": "AKT phosphorylation and expression of SOX2 and CDK6", "setting": "[3]", "value": "reduces the expression of SOX2 and CDK6 by inhibiting AKT phosphorylation; also recorded: prevented phosphorylation of AKT and induced degradation of SOX2, thereby reducing expression of CDK6"},
      {"measurement": "levels of CSC-associated molecules (OCT4, NANOG, KLF4, c-MYC, CD34, CD133)", "setting": "[3]", "value": "significantly reduced levels of CSC-associated molecules in the RCHO-resistant cells"},
      {"measurement": "cytotoxicity (induction of cell death), inhibitor used alone", "setting": "[4]; inhibitor alone at increasing concentrations", "value": "only slightly somewhat cytotoxic; also recorded: negligible effect on direct induction of cell death"},
      {"measurement": "reversal of resistance to CHO (cytotoxicity of CHO), inhibitor co-treated with CHO", "setting": "[4]; inhibitor at increasing concentrations with CHO", "value": "significantly enhanced the cytotoxicity of CHO in the two RCHO-resistant cell lines in a dose-dependent manner; also recorded: significantly reversed resistance of RCHO-resistant cells to CHO"},
      {"measurement": "SOX2 expression level in tumor tissue (IHC)", "setting": "[5]", "value": "significantly reduced the expression levels of SOX2 compared with a saline control"},
      {"measurement": "SOX2 expression level in tumor tissue (IHC)", "setting": "[6]", "value": "significantly reduced the expression levels of SOX2 compared with a saline control"}
    ]}
  ]
}
